14 compounds from US7294640B2, “Mitotic kinesin inhibitors” (Merck & Co., Inc., priority 2004, dated 2007) can be followed below.

This test concerns the target T1, GST-MCAK fusion protein (Homo sapiens, UniProt Q99661).
T1 construct: The GST-MCAK fusion protein was purchased Cytoskeleton (cat. #MK01); fused on or other part: GST tag (N-terminal, by the vendor's product)
In words: MCAK ATPase in vitro assay. It counts as biochemical. The following applies: GST-MCAK 100 nM, 1 mM sodium ATP, 2 μM microtubules, RT 50 min, 5% DMSO. How it is done: V. MCAK ATPase in Vitro Assay
Reagents: The GST-MCAK fusion protein was purchased Cytoskeleton (cat. #MK01). Tubulin from bovine brain was purchased from Cytoskeleton (HTS-grade), BSA from Sigma (cat. # 3059). chloramphenicol from Boehringer Mannheim (cat. # 634433), ampicillin from Fisher Biotech (cat. # BP1760-25) and Paclitaxel from Cytoskeleton (cat. # TXD01)
Microtubule preparation: For the preparation of microtubules, purified tubulin (>97% MAP-free) at 1 mg/ml was polymerized at 37° C. in the presence of 10 μM paclitaxel, 1 mM DTT, 1 mM GTP in BRB80 buffer (80 mM K-PIPES, 1 mM EGTA, 1 mM MgCl2 at pH 6.8). The resulting microtubules were separated from non-polymerized tubulin by ultracentrifugation and removal of the supernatant. The pellet, containing the microtubules, was gently resuspended in 1×BRB 80 containing 10 μM paclitaxel, 1 mM DTT, 50 μg/ml ampicillin, 5 μg/ml chloramphenicol in BRB80.
MCAK ATPase assay: GST-MCAK at 100 nM was incubated with 1 mM sodium ATP, 2 μM microtubules with 2 μM paclitaxel (concentration refers to tubulin dimers), and inhibitor at RT for 50 min in reaction buffer (80 mM K-PIPES, 1 mM K-EGTA, 2 mM MgCl2, 1 mM DTT, and 100 μg/ml BSA, pH 6.9). Compounds were dissolved in DMSO, and the final DMSO concentration in the reaction was 5%. The reaction was terminated with a 2-fold dilution of the reaction with 2× stop buffer (50 mM EDTA/1.8 M KCl). The free phosphate from the ATP hydrolysis reaction was measured via a quinaldine red/ammonium molybdate assay by adding 1.5 volumes of quench C within 24 hrs of addition of stop buffer. (Cogan, E. B., Birrell, G. B., Griffith, O. H. (1999) Analytical Biochemistry 271, p 29). Quench C was prepared by adding 1 volume of quench B (12.3 mM ammonium molybdate tetrahydrate in 1.15 M sulfuric acid) to 2 volumes of quench A (0.1 mg/ml quinaldine red, 0.14% polyvinyl alcohol). The plate was incubated for 5 min at room temperature, and the absorbance of the phosphomolybdate complex was measured at 540 nm.

T1 sequence (Q99661 258-588 limits assumed): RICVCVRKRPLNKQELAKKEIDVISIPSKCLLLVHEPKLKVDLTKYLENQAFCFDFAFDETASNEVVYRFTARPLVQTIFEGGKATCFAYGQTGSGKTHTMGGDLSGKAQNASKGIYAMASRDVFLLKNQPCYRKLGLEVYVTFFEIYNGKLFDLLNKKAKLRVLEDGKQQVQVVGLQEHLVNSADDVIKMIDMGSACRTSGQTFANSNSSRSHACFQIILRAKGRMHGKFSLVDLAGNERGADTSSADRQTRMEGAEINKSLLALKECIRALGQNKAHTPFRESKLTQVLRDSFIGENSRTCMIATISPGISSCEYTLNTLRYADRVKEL

A word on the IC50: it is the concentration that gives 50% inhibition. Read a high IC50 as weaker potency. Compound `CC(c1ccccc1)c1nc(-c2ccc([N+](=O)[O-])cc2)cs1` (centres unmarked) [Compound 1-5, 4-(4-nitrophenyl)-2-(1-phenylethyl)-1,3-thiazole] had a 50% inhibitory concentration (IC50) of at most 50 µM. In the case of `c1ccc(C2(c3nc(-c4cccnc4)cs3)CC2)cc1` [Compound 1-10, 3-[2-(1-phenylcyclopropyl)-1,3-thiazol-4-yl]pyridine] it was at most 50 µM; in that of `N#Cc1ccc(-c2csc(C3(c4c(F)cccc4F)CC3)n2)cc1` [Compound 1-15, 4-{2-[1-(2,6-difluorophenyl)cyclopropyl]-1,3-thiazol-4-yl}benzonitrile], at most 50 µM; in that of `N#Cc1ccc(-c2csc(C3(c4ccccc4)CC3)n2)cn1` [Compound 2-2, 5-[2-(1-phenylcyclopropyl)-1,3-thiazol-4-yl]pyridine-2-carbonitrile], at most 50 µM.

`[O-][n+]1ccc(-c2csc(C3(c4ccccc4)CC3)n2)cc1` [Compound 2-3, 4-[2-(1-phenylcyclopropyl)-1,3-thiazol-4-yl]-1lambda~5~pyridin-1-ol] gave an IC50 of at most 50 µM. In the case of `Oc1ccc(-c2csc(C3(c4ccccc4)CC3)n2)cc1O` [Compound 3-2, 4-(3,4-dihydroxyphenyl)-2-(1-phenylcyclopropyl)-1,3-thiazole] it was at most 50 µM; in that of `Oc1cnccc1-c1csc(C2(c3ccccc3)CC2)n1` [Compound 3-3, 4-[2-(1-phenylcyclopropyl)-1,3-thiazol-4-yl]pyridin-3-ol], at most 50 µM. In the case of `Oc1ccc(-c2csc(C3(c4ccccc4)CC3)n2)cc1` [Compound 3-4, 4-[2-(1-phenylcyclopropyl)-1,3-thiazol-4-yl]phenol] it was at most 50 µM; in that of `Oc1cccc(-c2csc(C3(c4ccccc4)CC3)n2)c1` [Compound 3-5, 3-[2-(1-phenylcyclopropyl)-1,3-thiazol-4-yl]phenol], at most 50 µM; in that of `OCc1cccc(-c2csc(C3(c4ccccc4)CC3)n2)c1` [Compound 5-1, {3-[2-(1-phenylcyclopropyl)-1,3-thiazol-4-yl]phenyl}methanol], at most 50 µM.

`Clc1cccc(C2(c3nc(-c4ccncc4)cs3)CC2)c1` [Compound 9-10, 4-{2-[1-(3-chlorophenyl)cyclopropyl]-1,3-thiazol-4-yl}pyridine] showed an IC50 of at most 50 µM. In the case of `Fc1ccccc1C1(c2nc(-c3ccncc3)cs2)CC1` [Compound 9-11, 4-{2-[1-(2-fluorophenyl)cyclopropyl]-1,3-thiazol-4-yl}pyridine] it was at most 50 µM; in that of `Clc1cc(-c2csc(C3(c4ccccc4)CC3)n2)ccn1` [Compound 9-13, 2-chloro-4-[2-(1-phenylcyclopropyl)-1,3-thiazol-4-yl]pyridine], at most 50 µM.

In the case of `Cc1cccc(C2(c3nc(-c4ccncc4)cs3)CC2)c1` [Compound 9-14, 4-{2-[1-(3-methylphenyl)cyclopropyl]-1,3-thiazol-4-yl}pyridine], the IC50 is at most 50 µM.
